Drawing on ChEMBL document CHEMBL1201862, “PubChem BioAssay data set” (2004), this text covers IC50, AC50 and EC50 for 5 compounds.

Activity calls are given as the source filed them.

One experiment addresses Ephrin type-A receptor 4 (Mus musculus, UniProt Q03137). In words: inhibitors of EphA4 binding to KYL peptide, primary screen, biochemical, colorimetric, mouse EphA4 (AID 689). Type of experiment: functional.
For the next experiment, the target named is Cytochrome P450 2C19 (Homo sapiens, UniProt P33261). Briefly: Cytochrome panel assay with activity outcomes. Panel member name: p450-cyp2c19 Compounds with AC50 equal or less than 10 uM are considered active. Type of experiment: functional. As to conditions: read-out: AC50.
For another experiment, the target named is Cytochrome P450 3A4 (Homo sapiens, UniProt P08684).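 Note: CYP3A4 tested as one member of a cytochrome P450 panel screen.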
Experiment [1] addresses T1, Corticotropin-releasing factor receptor 2/Corticotropin-releasing factor-binding protein (Homo sapiens, UniProt P24387+Q13324).
T1 sequence (Q13324 whole entry): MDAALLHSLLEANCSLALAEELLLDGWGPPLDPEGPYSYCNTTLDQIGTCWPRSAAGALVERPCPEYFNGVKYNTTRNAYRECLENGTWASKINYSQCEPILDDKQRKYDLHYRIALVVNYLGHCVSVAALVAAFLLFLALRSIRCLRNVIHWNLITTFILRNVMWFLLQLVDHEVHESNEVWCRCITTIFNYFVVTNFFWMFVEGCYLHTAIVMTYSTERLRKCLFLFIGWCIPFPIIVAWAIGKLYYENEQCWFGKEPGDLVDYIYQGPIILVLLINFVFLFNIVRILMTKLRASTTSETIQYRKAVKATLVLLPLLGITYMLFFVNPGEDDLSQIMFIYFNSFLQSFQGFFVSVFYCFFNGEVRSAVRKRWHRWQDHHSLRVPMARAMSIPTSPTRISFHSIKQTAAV
T1 sequence (P24387 whole entry): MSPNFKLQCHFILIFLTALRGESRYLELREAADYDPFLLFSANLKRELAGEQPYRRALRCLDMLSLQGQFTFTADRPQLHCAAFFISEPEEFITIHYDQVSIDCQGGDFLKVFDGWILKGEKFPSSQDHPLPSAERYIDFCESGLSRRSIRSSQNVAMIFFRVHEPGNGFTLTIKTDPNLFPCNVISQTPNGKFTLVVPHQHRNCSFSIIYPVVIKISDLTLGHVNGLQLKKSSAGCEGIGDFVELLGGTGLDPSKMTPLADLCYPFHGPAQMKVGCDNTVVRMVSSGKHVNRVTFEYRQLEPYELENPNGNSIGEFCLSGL
In words: activators of CRF receptor 2 with binding protein – uHTS hits, confirmation (AID 602473). Type of experiment: functional. As to conditions: read-out: EC50_Mean.

Experiment [2] has as its target Peroxisome proliferator-activated receptor gamma/Nuclear receptor coactivator 3 (Homo sapiens, UniProt P37231). Briefly: TR-FRET dose response biochemical High Throughput Screening assay for agonists of the steroid receptor coactivator 3 (SRC-3) recruitment by the peroxisome proliferator-activated receptor gamma (PPAR gamma): non-selective agonists. [Related pubchem assays: 1301 (Confirmation screen.), 1048 (Primary screen.)]. Type of experiment: functional.

The target of experiment [3] is Peroxisome proliferator-activated receptor gamma/Nuclear receptor coactivator 2 (Homo sapiens, UniProt P37231). In words: TR-FRET dose response biochemical High Throughput Screening assay for agonists of the steroid receptor coactivator 2 (SRC-2) recruitment by the peroxisome proliferator-activated receptor gamma (PPAR gamma): non-selective agonists. [Related pubchem assays: 1297, 1032 ]. Type of experiment: functional.

The next experiment deals with T2, Aminopeptidase N (Plasmodium falciparum FcB1/Columbia, UniProt O96935).
T2 sequence (O96935 whole entry): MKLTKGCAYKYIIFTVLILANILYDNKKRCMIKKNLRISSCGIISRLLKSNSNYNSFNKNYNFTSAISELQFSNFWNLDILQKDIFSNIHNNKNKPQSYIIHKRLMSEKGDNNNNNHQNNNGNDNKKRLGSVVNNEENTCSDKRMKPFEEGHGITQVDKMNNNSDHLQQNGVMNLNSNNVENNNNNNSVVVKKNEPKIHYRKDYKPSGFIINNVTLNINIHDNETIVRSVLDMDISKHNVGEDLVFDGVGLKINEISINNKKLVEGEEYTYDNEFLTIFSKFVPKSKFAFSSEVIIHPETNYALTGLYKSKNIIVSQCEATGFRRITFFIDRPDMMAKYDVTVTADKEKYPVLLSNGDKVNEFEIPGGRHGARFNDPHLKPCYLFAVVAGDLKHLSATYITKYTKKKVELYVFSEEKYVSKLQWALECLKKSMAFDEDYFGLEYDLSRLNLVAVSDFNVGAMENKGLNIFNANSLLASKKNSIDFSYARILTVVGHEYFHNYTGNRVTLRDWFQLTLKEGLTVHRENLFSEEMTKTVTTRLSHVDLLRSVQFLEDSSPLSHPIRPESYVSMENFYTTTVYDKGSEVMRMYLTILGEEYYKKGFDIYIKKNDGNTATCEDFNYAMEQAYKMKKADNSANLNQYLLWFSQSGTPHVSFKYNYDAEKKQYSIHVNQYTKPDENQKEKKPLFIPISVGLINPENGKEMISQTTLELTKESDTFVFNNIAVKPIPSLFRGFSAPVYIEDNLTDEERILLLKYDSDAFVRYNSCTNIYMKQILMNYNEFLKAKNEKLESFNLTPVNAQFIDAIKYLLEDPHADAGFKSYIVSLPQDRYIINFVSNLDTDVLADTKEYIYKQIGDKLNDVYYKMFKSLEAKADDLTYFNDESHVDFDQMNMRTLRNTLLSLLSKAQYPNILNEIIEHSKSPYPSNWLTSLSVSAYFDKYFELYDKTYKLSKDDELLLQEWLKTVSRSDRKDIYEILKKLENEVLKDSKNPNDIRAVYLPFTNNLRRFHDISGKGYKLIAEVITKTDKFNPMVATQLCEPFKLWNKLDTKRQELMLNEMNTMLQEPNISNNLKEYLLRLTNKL
In words: P. falciparum M1AAP inhibitors, biochemical, fluorogenic H-Leu-NHMec substrate, 1536-well (AID 1445). More on the design: species or system Plasmodium falciparum 3D7, 3D7.

Experiment [4] deals with Peroxisome proliferator-activated receptor gamma/Nuclear receptor coactivator 1 (Homo sapiens, UniProt P37231). Briefly: TR-FRET dose response biochemical High Throughput Screening assay for agonists of the steroid receptor coactivator 1 (SRC-1) recruitment by the peroxisome proliferator-activated receptor gamma (PPAR gamma): non-selective agonists. [Related pubchem assays (depositor defined):AID1300, AID1808, AID504735, AID631]. Type of experiment: protein assay.

Experiment [5] has as its target T1, Corticotropin-releasing factor receptor 2/Corticotropin-releasing factor-binding protein. Briefly: Dose Response confirmation of uHTS hits for small molecule antagonists of the CRF-binding protein and CRF-R2 receptor complex. To be noted: read-out: IC50_Mean. It counts as functional.
In a further experiment the target is Aspartyl aminopeptidase (Plasmodium falciparum 3D7, UniProt Q8I2J3). Briefly: Counterscreen for inhibitors of M1 and M17 aminopeptidases: QFRET-based biochemical high throughput dose response assay for inhibitors of the Plasmodium falciparum M18 Aspartyl Aminopeptidase (PFM18AAP). [Related PubChem assays: 1619 (Screening assay (M17LAP inhibitors).), 1445 (Screening assay (M1AAP inhibitors).)].

For the next experiment, the target named is Procathepsin L (Homo sapiens, UniProt P07711). Briefly: cathepsin L inhibitors, dose response, counter-screen for M1/M17 aminopeptidase inhibitor project, biochemical, QFRET, 1536-well (AID 2214).
Experiment [6] can be described thus: NIH-3T3 fibroblast cytotoxicity, dose response, cytotoxicity control, cell-based, fluorescence, Alamar Blue, secondary assay (AID 2327).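 Note: NIH-3T3 mouse fibroblasts cultured with fluconazole at 8 µg/mL.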 Type of experiment: functional.
In experiment [7] the target is T3, Mannose-6-phosphate isomerase (Homo sapiens, UniProt P34949).
T3 sequence (P34949 whole entry): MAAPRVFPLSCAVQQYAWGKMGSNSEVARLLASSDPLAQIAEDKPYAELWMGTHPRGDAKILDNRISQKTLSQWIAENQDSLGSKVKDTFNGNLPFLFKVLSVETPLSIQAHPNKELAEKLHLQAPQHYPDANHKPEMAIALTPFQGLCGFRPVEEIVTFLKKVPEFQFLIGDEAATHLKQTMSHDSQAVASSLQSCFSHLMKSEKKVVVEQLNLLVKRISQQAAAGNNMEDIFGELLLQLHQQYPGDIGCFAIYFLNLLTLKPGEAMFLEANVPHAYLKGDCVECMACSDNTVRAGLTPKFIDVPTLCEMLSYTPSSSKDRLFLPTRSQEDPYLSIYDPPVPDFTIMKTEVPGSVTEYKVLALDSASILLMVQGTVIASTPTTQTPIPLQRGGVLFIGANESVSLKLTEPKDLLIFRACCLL
In words: human PMI inhibitors, high substrate, primary screen, biochemical, fluorescence intensity, high mannose 6-phosphate (AID 1220).

The target in experiment [8] is Induced myeloid leukemia cell differentiation protein Mcl-1 (Homo sapiens, UniProt Q07820). It counts as functional.
The nature of experiment [9]: C. albicans growth with fluconazole, confirmation, fluorescence, retest (AID 2467). Type of experiment: functional, cell-based.
A short description of experiment [10]: Luminescent dose response cell-based high throughput screening assay for inhibitors of the Janus kinase 2 mutant JAK2V617F. [Related pubchem assays: 1446 (Primary screen.), 1521 (Confirmation assay.), 1486 (Counter screen.)]. Type of experiment: functional.
The target of experiment [11] is T4, Histone-lysine N-methyltransferase NSD2 (Homo sapiens, UniProt O96028).
T4 sequence (O96028 whole entry): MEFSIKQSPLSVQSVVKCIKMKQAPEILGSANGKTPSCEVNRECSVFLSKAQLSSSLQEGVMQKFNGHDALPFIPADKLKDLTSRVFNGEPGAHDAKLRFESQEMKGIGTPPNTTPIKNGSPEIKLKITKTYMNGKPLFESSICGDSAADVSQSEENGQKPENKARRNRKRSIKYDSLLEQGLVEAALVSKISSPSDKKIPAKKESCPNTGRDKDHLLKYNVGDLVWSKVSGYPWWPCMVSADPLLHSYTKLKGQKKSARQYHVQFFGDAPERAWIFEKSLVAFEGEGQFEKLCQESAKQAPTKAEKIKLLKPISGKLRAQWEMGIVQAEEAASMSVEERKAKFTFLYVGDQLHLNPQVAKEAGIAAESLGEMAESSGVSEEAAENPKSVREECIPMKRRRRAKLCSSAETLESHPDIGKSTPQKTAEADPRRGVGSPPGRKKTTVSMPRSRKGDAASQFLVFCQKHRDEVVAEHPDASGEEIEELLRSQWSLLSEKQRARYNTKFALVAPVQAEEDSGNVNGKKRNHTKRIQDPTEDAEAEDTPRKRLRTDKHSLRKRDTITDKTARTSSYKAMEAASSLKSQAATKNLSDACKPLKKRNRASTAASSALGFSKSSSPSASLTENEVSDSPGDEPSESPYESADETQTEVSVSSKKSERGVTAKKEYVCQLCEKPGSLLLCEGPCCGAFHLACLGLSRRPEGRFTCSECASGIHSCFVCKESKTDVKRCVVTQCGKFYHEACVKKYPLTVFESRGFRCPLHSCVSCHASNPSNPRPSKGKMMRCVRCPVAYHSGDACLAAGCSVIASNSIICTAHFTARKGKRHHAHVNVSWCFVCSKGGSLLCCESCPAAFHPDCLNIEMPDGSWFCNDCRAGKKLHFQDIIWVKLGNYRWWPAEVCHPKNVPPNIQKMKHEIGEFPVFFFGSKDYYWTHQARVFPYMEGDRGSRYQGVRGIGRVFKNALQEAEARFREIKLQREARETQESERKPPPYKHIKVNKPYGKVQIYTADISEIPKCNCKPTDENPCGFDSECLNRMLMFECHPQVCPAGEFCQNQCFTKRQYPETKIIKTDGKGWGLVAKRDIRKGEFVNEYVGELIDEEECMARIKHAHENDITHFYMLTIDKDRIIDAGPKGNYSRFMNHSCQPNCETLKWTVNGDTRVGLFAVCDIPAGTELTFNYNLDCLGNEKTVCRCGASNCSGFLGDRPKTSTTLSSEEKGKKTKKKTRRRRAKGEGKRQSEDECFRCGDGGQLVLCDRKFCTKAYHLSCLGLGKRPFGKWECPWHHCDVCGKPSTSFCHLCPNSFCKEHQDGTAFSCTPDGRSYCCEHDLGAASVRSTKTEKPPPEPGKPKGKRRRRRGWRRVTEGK
It counts as biochemical.

Experiment [12] deals with Voltage-gated inwardly rectifying potassium channel KCNH2 (Homo sapiens, UniProt Q12809). In words: hERG protection from proarrhythmic block, potency, dose response, cell-based, thallium flux (AID 2121). It counts as ADME.
Experiment [13] in a line: Late stage counterscreen results from the probe development effort to identify activators of signal transducer and activator of transcription 1 (STAT1): luminescence-based cell-based dose response assay to identify cytotoxic compounds. It counts as functional.

Aspartyl aminopeptidase, sequence (Q8I2J3 whole entry): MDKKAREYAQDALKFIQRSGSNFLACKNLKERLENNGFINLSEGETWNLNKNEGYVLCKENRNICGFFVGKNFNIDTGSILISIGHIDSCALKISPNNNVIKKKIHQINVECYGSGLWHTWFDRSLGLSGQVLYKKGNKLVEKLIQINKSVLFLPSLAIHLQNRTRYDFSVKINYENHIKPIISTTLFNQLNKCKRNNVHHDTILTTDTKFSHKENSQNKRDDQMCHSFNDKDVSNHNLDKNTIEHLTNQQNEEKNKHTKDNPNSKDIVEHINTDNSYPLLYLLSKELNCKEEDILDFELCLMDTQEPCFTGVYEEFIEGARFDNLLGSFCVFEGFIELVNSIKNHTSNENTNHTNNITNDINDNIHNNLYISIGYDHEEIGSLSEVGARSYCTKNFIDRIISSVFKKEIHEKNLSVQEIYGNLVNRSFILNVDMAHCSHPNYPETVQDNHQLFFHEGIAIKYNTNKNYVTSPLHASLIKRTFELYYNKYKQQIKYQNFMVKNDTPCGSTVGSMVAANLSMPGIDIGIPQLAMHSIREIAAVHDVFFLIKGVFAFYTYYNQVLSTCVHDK
Peroxisome proliferator-activated receptor gamma/Nuclear receptor coactivator 2, sequence (P37231 whole entry): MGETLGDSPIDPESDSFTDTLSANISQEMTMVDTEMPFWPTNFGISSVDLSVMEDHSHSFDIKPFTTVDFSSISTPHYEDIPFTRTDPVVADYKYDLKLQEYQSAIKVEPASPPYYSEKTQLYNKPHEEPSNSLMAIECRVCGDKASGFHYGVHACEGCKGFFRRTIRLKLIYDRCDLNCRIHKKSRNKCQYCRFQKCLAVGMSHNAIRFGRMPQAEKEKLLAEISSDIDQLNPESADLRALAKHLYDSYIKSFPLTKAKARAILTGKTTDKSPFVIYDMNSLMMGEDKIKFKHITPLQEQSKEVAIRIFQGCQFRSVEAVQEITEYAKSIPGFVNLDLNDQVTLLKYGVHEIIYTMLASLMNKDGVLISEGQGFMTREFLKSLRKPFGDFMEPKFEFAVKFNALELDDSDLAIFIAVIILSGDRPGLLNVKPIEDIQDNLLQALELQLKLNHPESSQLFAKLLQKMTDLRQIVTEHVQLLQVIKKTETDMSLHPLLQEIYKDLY
Peroxisome proliferator-activated receptor gamma/Nuclear receptor coactivator 2, sequence (Q15596 whole entry, further chain): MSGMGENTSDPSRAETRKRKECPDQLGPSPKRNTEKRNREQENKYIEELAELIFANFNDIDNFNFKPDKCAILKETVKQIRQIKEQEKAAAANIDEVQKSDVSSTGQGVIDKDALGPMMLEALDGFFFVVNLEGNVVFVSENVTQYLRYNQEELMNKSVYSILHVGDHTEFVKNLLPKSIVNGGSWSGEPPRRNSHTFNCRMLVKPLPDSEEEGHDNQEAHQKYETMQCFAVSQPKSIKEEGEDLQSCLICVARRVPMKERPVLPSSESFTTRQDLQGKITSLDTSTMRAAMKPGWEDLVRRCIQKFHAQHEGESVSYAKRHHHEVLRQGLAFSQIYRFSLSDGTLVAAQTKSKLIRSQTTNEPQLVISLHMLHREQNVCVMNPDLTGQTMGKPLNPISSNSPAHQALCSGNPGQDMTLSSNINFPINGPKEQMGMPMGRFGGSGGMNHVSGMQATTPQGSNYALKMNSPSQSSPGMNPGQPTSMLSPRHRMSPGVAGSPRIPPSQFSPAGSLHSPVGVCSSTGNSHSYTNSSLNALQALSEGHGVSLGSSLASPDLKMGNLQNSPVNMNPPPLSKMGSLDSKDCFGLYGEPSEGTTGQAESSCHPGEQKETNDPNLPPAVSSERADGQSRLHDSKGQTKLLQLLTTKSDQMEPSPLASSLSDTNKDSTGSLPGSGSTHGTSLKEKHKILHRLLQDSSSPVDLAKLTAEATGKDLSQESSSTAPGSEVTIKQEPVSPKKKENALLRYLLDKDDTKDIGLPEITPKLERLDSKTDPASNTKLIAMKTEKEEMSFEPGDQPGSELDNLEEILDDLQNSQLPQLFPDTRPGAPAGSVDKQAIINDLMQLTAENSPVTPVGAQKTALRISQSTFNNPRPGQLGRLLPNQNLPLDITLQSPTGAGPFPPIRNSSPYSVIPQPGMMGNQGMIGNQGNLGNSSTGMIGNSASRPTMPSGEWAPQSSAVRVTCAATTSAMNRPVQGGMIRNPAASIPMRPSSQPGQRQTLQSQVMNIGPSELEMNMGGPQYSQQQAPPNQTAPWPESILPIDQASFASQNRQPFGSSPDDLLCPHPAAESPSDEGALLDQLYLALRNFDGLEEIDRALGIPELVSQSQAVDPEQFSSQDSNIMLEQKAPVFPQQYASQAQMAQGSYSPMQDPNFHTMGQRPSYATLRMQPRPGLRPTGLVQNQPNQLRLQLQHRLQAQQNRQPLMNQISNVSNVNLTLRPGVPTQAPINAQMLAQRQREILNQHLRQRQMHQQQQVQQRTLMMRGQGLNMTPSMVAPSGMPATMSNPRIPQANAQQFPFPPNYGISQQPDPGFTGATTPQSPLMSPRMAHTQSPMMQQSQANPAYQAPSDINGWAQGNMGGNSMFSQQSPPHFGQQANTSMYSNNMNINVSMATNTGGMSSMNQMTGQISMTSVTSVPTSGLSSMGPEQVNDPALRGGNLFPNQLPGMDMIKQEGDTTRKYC
Peroxisome proliferator-activated receptor gamma/Nuclear receptor coactivator 1, sequence (P37231 whole entry): as the sequence (P37231 whole entry) above
Peroxisome proliferator-activated receptor gamma/Nuclear receptor coactivator 1, sequence (Q15788 whole entry, further chain): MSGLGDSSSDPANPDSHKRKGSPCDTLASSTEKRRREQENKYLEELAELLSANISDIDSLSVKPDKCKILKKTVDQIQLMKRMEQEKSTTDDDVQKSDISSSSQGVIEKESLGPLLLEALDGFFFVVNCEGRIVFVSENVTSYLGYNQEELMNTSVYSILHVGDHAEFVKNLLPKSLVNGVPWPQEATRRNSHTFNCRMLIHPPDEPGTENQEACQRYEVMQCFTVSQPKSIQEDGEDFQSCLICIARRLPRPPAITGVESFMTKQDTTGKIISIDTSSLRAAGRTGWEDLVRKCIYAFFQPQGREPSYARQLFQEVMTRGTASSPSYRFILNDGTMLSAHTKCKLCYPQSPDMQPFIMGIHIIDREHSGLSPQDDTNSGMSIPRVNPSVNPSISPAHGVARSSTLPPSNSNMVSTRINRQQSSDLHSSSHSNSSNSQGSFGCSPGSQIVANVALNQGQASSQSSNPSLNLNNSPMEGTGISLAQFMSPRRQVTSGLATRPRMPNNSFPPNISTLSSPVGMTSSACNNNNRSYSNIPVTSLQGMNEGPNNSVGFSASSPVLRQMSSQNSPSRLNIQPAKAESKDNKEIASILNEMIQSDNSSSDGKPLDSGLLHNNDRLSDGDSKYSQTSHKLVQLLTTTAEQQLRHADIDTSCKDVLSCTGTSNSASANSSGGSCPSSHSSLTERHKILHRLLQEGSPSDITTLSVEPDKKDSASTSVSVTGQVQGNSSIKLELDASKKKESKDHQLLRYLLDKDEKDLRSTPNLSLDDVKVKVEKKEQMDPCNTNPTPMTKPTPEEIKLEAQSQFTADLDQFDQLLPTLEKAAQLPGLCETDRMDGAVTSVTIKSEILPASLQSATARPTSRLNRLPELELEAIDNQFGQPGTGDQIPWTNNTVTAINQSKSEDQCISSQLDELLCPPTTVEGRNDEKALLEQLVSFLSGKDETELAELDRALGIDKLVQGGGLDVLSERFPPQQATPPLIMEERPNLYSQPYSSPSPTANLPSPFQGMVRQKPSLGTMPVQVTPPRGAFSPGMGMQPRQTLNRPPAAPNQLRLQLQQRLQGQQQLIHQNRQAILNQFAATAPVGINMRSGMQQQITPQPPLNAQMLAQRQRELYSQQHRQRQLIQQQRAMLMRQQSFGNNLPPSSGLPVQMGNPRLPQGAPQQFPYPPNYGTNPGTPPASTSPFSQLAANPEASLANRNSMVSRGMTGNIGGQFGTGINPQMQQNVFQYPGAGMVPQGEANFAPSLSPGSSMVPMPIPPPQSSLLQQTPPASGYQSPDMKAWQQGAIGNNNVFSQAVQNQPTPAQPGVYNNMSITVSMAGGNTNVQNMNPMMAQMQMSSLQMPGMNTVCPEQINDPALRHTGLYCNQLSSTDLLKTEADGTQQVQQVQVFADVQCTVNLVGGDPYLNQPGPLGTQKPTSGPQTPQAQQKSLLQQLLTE
Procathepsin L, sequence (P07711 whole entry): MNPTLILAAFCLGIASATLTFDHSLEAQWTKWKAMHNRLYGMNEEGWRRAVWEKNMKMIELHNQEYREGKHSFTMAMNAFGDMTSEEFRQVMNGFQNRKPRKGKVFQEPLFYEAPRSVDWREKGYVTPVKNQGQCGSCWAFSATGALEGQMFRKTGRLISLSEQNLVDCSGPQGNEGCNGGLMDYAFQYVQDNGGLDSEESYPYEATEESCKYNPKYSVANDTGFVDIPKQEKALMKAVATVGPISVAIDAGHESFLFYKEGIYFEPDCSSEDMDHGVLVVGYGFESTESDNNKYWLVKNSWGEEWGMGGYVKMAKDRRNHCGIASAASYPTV

For `CCOC(=O)c1c(N=C(S)Nc2ccccc2)sc2c1CCN(CCc1ccccc1)C2`, on Ephrin type-A receptor 4, the IC50 was 14.7 µM (active). Moreover, the half-maximal activity concentration (AC50) on Cytochrome P450 2C19 and at Cytochrome P450 3A4 was 22.4 µM (inconclusive) throughout.

`O=C1Nc2ccccc2/C1=C1/SC(=S)N(NC(=O)c2cccc(O)c2)C1=O`: the EC50 is > 53 µM (inactive) in experiment [1], > 79.4 µM (not active) in experiment [2], 41 µM (not active) in experiment [3] and > 79.4 µM (inactive) in experiment [4]. The IC50 on Aminopeptidase N was 4.08 µM (active); in [5], < 0.368 µM (active); against Aspartyl aminopeptidase, 39.5 µM (not active); at Procathepsin L it was 31.8 µM (not active).

Consider `Cc1c(Cc2ccccc2)c(=O)oc2c(O)c(O)ccc12`, for which the EC50 in experiment [6] is 18.7 µM (active); in [9], 2.73 µM (active). Besides, the IC50 was 29.6 µM (active) in experiment [7], 11.7 µM (not active) in experiment [8] and 2.67 µM (active) in [10]. The AC50 in [11] was > 20 µM (inactive).

On to `Cc1onc(-c2ccccc2)c1C(=O)NC(=S)Nc1sc2c(c1C#N)CCC(C)C2` (centres undefined), for which the EC50 in [12] is 0.86 µM (active).

Regarding `COc1ccc(-c2csc(N3C(=O)CNC3=S)n2)cc1`, the IC50 in experiment [13] is listed as > 55.7 µM (not active).
